Experimental data reported in the supplement of paper PMC10627819.

Key:
Assay in all cases: Bliss interaction score (quartile over a dose matrix) (fitness difference); higher = more antagonism (negative = synergy)
[1] = test system: B. subtilis 168
In short: (§1)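 The Bliss score is observed fitness minus expected fitness, where the expected value is the product of single-drug fitness values inferred from combination data. Fitness is OD595 at entry into stationary phase normalised to the plate's robust no-drug mean and capped at 1. Scores are reported as quartiles spanning technical, biological and donor/recipient replicates.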

[2] = test system: S. aureus DSM 20231
In short: as §1

[3] = test system: S. aureus Newman
In short: as §1

[4] = test system: S. pneumoniae D39V
In short: as §1
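Further: first quartile when negative (synergy) and third quartile when positive (antagonism).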

SMILES	Bliss interaction score [1]	Bliss interaction score [2]	Bliss interaction score [3]	Bliss interaction score [4]	Bliss interaction score ([1]; main component drawn)	Bliss interaction score ([2]; main component drawn)	Bliss interaction score ([3]; main component drawn)	Bliss interaction score ([4]; main component drawn)
CC(=O)OC[C@H]1O[C@@H]([S-])[C@H](OC(C)=O)[C@@H](OC(C)=O)[C@@H]1OC(C)=O.CCP(CC)CC.[Au+] [Auranofin] + Cn1nnc(-c2ccc(-c3ccc(N4C[C@H](CO)OC4=O)cc3F)cn2)n1 [Tedizolid]	-0.0317	-0.0334	-0.108	0.0602				
CC(=O)OC[C@H]1O[C@@H]([S-])[C@H](OC(C)=O)[C@@H](OC(C)=O)[C@@H]1OC(C)=O.CCP(CC)CC.[Au+] [Auranofin] + N[C@@H]1CONC1=O [CycloserineD]	0.0806	-0.0513	0.0247	0.106				
CC(=O)OC[C@H]1O[C@@H]([S-])[C@H](OC(C)=O)[C@@H](OC(C)=O)[C@@H]1OC(C)=O.CCP(CC)CC.[Au+] [Auranofin] + O=C1CN(/N=C/c2ccc([N+](=O)[O-])o2)C(=O)N1 [Nitrofurantoin]	-0.066	-0.0217	-0.132	-0.421				
CC(=O)OC[C@H]1O[C@@H]([S-])[C@H](OC(C)=O)[C@@H](OC(C)=O)[C@@H]1OC(C)=O.CCP(CC)CC.[Au+] [Auranofin] + O=C(N[C@H](CO)[C@H](O)c1ccc([N+](=O)[O-])cc1)C(Cl)Cl [Chloramphenicol]	0.0717	0.0319	0.0594	-0.0406				
CC(=O)OC[C@H]1O[C@@H]([S-])[C@H](OC(C)=O)[C@@H](OC(C)=O)[C@@H]1OC(C)=O.CCP(CC)CC.[Au+] [Auranofin] + O=C(O)[C@H]1/C(=C/CO)O[C@@H]2CC(=O)N21 [Clavulanic]	-0.0681	-0.188	0.167	-0.0729				
CC(=O)OC[C@H]1O[C@@H]([S-])[C@H](OC(C)=O)[C@@H](OC(C)=O)[C@@H]1OC(C)=O.CCP(CC)CC.[Au+] [Auranofin] + O=C(O)c1cn(C2CC2)c2cc(N3CCNCC3)c(F)cc2c1=O [Ciprofloxacin]	0.0472	0.0217	0.0727	-0.11				
CC(=O)OC[C@H]1O[C@@H]([S-])[C@H](OC(C)=O)[C@@H](OC(C)=O)[C@@H]1OC(C)=O.CCP(CC)CC.[Au+] [Auranofin] + O=C(O[C@@H]1Cc2c(O)cc(O)cc2O[C@@H]1c1cc(O)c(O)c(O)c1)c1cc(O)c(O)c(O)c1 [EGCG]	0.0518	-0.0255	-0.0511	0.08				
CC(=O)OC[C@H]1O[C@@H]([S-])[C@H](OC(C)=O)[C@@H](OC(C)=O)[C@@H]1OC(C)=O.CCP(CC)CC.[Au+] [Auranofin] + Oc1cc(Cl)ccc1Oc1ccc(Cl)cc1Cl [Triclosan]	-0.0277	-0.0223	-0.0211	0.106				
O=C(N[C@H](CO)[C@H](O)c1ccc([N+](=O)[O-])cc1)C(Cl)Cl [Chloramphenicol] + CC1(C)S[C@@H]2[C@H](NC(=O)Cc3ccccc3)C(=O)N2[C@H]1C(=O)O [PenicillinG]	0.0719	0.0631	-0.0428	-0.0461				
O=C(N[C@H](CO)[C@H](O)c1ccc([N+](=O)[O-])cc1)C(Cl)Cl [Chloramphenicol] + CC(=O)O[C@H]1C[C@@]2(C)[C@@H](C[C@@H](O)[C@H]3[C@@]4(C)CC[C@@H](O)[C@@H](C)[C@@H]4CC[C@@]32C)/C1=C(\CCC=C(C)C)C(=O)O [Fusidic acid]	0.074	0.0319	-0.0559	-0.103				
O=C(N[C@H](CO)[C@H](O)c1ccc([N+](=O)[O-])cc1)C(Cl)Cl [Chloramphenicol] + CCC(C)C1C(=O)NC(=C)C(=O)NC(C(=O)NC(CSCC(C(=O)N1)NC(=O)/C(=C/C)/NC(=O)C(C(C)CC)N)C(=O)NC2C(SCC(NC(=O)CNC(=O)C3CCCN3C2=O)C(=O)NC(CCCCN)C(=O)NC4C(SCC(NC(=O)CNC(=O)C(NC(=O)C(NC(=O)C(NC(=O)CNC4=O)C)CC(C)C)CCSC)C(=O)NC(CC(=O)N)C(=O)NC(CCSC)C(=O)NC(CCCCN)C(=O)NC5C(SCC6C(=O)NC(C(=O)NC(CSC(C(C(=O)N6)NC(=O)C(NC5=O)C)C)C(=O)NC(CO)C(=O)NC(C(C)CC)C(=O)NC(CC7=CN=CN7)C(=O)NC(C(C)C)C(=O)NC(=C)C(=O)NC(CCCCN)C(=O)O)CC8=CN=CN8)C)C)C)CC(C)C [Nisin]					0.0397	-0.0704	0.0543	-0.102
O=C(N[C@H](CO)[C@H](O)c1ccc([N+](=O)[O-])cc1)C(Cl)Cl [Chloramphenicol] + CC[C@H]1OC(=O)[C@H](C)C(=O)[C@H](C)[C@@H](O[C@@H]2O[C@H](C)C[C@H](N(C)C)[C@H]2O)[C@](C)(OC)C[C@@H](C)C(=O)[C@H](C)[C@H]2N(CCCCn3cnc(-c4cccnc4)c3)C(=O)O[C@]12C [Telithromycin]	-0.0575	-0.104	-0.0946	-0.0437				
O=C(N[C@H](CO)[C@H](O)c1ccc([N+](=O)[O-])cc1)C(Cl)Cl [Chloramphenicol] + CC[C@H]1OC(=O)[C@H](C)[C@@H](O[C@H]2C[C@@](C)(OC)[C@@H](O)[C@H](C)O2)[C@H](C)[C@@H](O[C@@H]2O[C@H](C)C[C@H](N(C)C)[C@H]2O)[C@](C)(O)C[C@@H](C)C(=O)[C@H](C)[C@@H](O)[C@]1(C)O [Erythromycin]	0.0488	0.0318	-0.103	0.0269				
